# Laboratory results as given in patent publication US4479943A, “3-Demethoxyistamycin B, the 2"-N-formimidoyl derivative thereof and pharmaceutical composition containing same” (Zaidan Hojin Biseibutsu Kagaku Kenkyu Kai, priority 1982, dated 1984).
# Tests used:
# [1] = system: Pseudomonas aeruginosa; conditions: in words; earlier filings; cited from earlier work
# [2] = system: Escherichia coli K-12 LA290 R64; test: Antibacterial MIC, standard serial dilution; assay type: cell-based; conditions: nutrient agar, 37° C., 17 hours, as free base
# [3] = system: Pseudomonas aeruginosa 99; test: Antibacterial MIC, standard serial dilution; assay type: cell-based; conditions: nutrient agar, 37° C., 17 hours, as free base
# [4] = system: Escherichia coli JR225; test: Antibacterial MIC, standard serial dilution; assay type: cell-based; conditions: nutrient agar, 37° C., 17 hours, as free base
# [5] = system: Escherichia coli NIHJ; test: Antibacterial MIC, standard serial dilution; assay type: cell-based; conditions: nutrient agar, 37° C., 17 hours, as free base
# [6] = system: Escherichia coli K-12 LA290 R56; test: Antibacterial MIC, standard serial dilution; assay type: cell-based; conditions: nutrient agar, 37° C., 17 hours, as free base
# [7] = system: Escherichia coli K-12 R388; test: Antibacterial MIC, standard serial dilution; assay type: cell-based; conditions: nutrient agar, 37° C., 17 hours, as free base
# [8] = system: Pseudomonas aeruginosa TI-13; test: Antibacterial MIC, standard serial dilution; assay type: cell-based; conditions: nutrient agar, 37° C., 17 hours, as free base
# [9] = system: Escherichia coli K-12 ML1410; test: Antibacterial MIC, standard serial dilution; assay type: cell-based; conditions: nutrient agar, 37° C., 17 hours, as free base
# [10] = system: Staphylococcus aureus FDA 209P; test: Antibacterial MIC, standard serial dilution; assay type: cell-based; conditions: nutrient agar, 37° C., 17 hours, as free base
# [11] = system: Pseudomonas aeruginosa PST1; test: Antibacterial MIC, standard serial dilution; assay type: cell-based; conditions: nutrient agar, 37° C., 17 hours, as free base
# [12] = system: Proteus rettgeri GN311; test: Antibacterial MIC, standard serial dilution; assay type: cell-based; conditions: nutrient agar, 37° C., 17 hours, as free base
# [13] = system: mice; test: Acute toxicity, intravenous administration in mice; assay type: in vivo
# [14] = system: Escherichia coli K-12 C600 R135; test: Antibacterial MIC, standard serial dilution; assay type: cell-based; conditions: nutrient agar, 37° C., 17 hours, as free base
# [15] = system: Staphylococcus aureus Ap01; test: Antibacterial MIC, standard serial dilution; assay type: cell-based; conditions: nutrient agar, 37° C., 17 hours, as free base
# [16] = system: Klebsiella pneumoniae 22#3038; test: Antibacterial MIC, standard serial dilution; assay type: cell-based; conditions: nutrient agar, 37° C., 17 hours, as free base
# [17] = system: Pseudomonas maltophilia GN 907; test: Antibacterial MIC, standard serial dilution; assay type: cell-based; conditions: nutrient agar, 37° C., 17 hours, as free base
# [18] = system: Staphylococcus epidermidis 109; test: Antibacterial MIC, standard serial dilution; assay type: cell-based; conditions: nutrient agar, 37° C., 17 hours, as free base
# [19] = system: Pseudomonas aeruginosa ROS 134/PU21; test: Antibacterial MIC, standard serial dilution; assay type: cell-based; conditions: nutrient agar, 37° C., 17 hours, as free base
# [20] = system: Pseudomonas aeruginosa No. 12; test: Antibacterial MIC, standard serial dilution; assay type: cell-based; conditions: nutrient agar, 37° C., 17 hours, as free base
# [21] = system: Klebsiella pneumoniae PCI602; test: Antibacterial MIC, standard serial dilution; assay type: cell-based; conditions: nutrient agar, 37° C., 17 hours, as free base
# [22] = system: Escherichia coli K-12; test: Antibacterial MIC, standard serial dilution; assay type: cell-based; conditions: nutrient agar, 37° C., 17 hours, as free base
# [23] = system: Mycobacterium smegmatis ATCC 607; test: Antibacterial MIC, standard serial dilution; assay type: cell-based; conditions: nutrient agar, 37° C., 17 hours, as free base
# [24] = system: gram-negative and gram-positive bacteria; test: Antibacterial activity overall (Table 1 spectrum); assay type: cell-based; conditions: in words
# [25] = system: Bacillus cereus ATCC 10702; test: Antibacterial MIC, standard serial dilution; assay type: cell-based; conditions: nutrient agar, 37° C., 17 hours, as free base
# [26] = system: Escherichia coli W677; test: Antibacterial MIC, standard serial dilution; assay type: cell-based; conditions: nutrient agar, 37° C., 17 hours, as free base
# [27] = system: Staphylococcus aureus Smith; test: Antibacterial MIC, standard serial dilution; assay type: cell-based; conditions: nutrient agar, 37° C., 17 hours, as free base
# [28] = system: Serratia marcescens; test: Antibacterial MIC, standard serial dilution; assay type: cell-based; conditions: nutrient agar, 37° C., 17 hours, as free base
# [29] = system: Proteus rettgeri GN466; test: Antibacterial MIC, standard serial dilution; assay type: cell-based; conditions: nutrient agar, 37° C., 17 hours, as free base
# [30] = system: Bacillus subtilis NRRL B-558; test: Antibacterial MIC, standard serial dilution; assay type: cell-based; conditions: nutrient agar, 37° C., 17 hours, as free base
# [31] = system: Corynebacterium bovis 1810; test: Antibacterial MIC, standard serial dilution; assay type: cell-based; conditions: nutrient agar, 37° C., 17 hours, as free base
# [32] = system: Bacillus subtilis PCI 219; test: Antibacterial MIC, standard serial dilution; assay type: cell-based; conditions: nutrient agar, 37° C., 17 hours, as free base
# [33] = system: Escherichia coli K-12 ML1629; test: Antibacterial MIC, standard serial dilution; assay type: cell-based; conditions: nutrient agar, 37° C., 17 hours, as free base
# [34] = system: Serratia sp. 4; test: Antibacterial MIC, standard serial dilution; assay type: cell-based; conditions: nutrient agar, 37° C., 17 hours, as free base
# [35] = system: Pseudomonas aeruginosa A3; test: Antibacterial MIC, standard serial dilution; assay type: cell-based; conditions: nutrient agar, 37° C., 17 hours, as free base
# [36] = system: Pseudomonas aeruginosa H9; test: Antibacterial MIC, standard serial dilution; assay type: cell-based; conditions: nutrient agar, 37° C., 17 hours, as free base
# [37] = system: Pseudomonas aeruginosa B-13; test: Antibacterial MIC, standard serial dilution; assay type: cell-based; conditions: nutrient agar, 37° C., 17 hours, as free base
# [38] = system: Sarcina lutea PCI 1001; test: Antibacterial MIC, standard serial dilution; assay type: cell-based; conditions: nutrient agar, 37° C., 17 hours, as free base
# [39] = system: Escherichia coli K-12 J5R11-2; test: Antibacterial MIC, standard serial dilution; assay type: cell-based; conditions: nutrient agar, 37° C., 17 hours, as free base
# [40] = system: Salmonella enteritidis 1891; test: Antibacterial MIC, standard serial dilution; assay type: cell-based; conditions: nutrient agar, 37° C., 17 hours, as free base
# [41] = system: Micrococcus flavus FDA 16; test: Antibacterial MIC, standard serial dilution; assay type: cell-based; conditions: nutrient agar, 37° C., 17 hours, as free base
# [42] = system: Providencia sp. Pv16; test: Antibacterial MIC, standard serial dilution; assay type: cell-based; conditions: nutrient agar, 37° C., 17 hours, as free base
# [43] = system: Pseudomonas aeruginosa K-Ps 102; test: Antibacterial MIC, standard serial dilution; assay type: cell-based; conditions: nutrient agar, 37° C., 17 hours, as free base
# [44] = system: Pseudomonas aeruginosa GN315; test: Antibacterial MIC, standard serial dilution; assay type: cell-based; conditions: nutrient agar, 37° C., 17 hours, as free base
# [45] = system: Escherichia coli K-12 ML1410 R81; test: Antibacterial MIC, standard serial dilution; assay type: cell-based; conditions: nutrient agar, 37° C., 17 hours, as free base
# [46] = system: Providencia sp. 2991; test: Antibacterial MIC, standard serial dilution; assay type: cell-based; conditions: nutrient agar, 37° C., 17 hours, as free base
# [47] = system: Shigella dysenteriae JS11910; test: Antibacterial MIC, standard serial dilution; assay type: cell-based; conditions: nutrient agar, 37° C., 17 hours, as free base
# [48] = system: Proteus vulgaris 0X19; test: Antibacterial MIC, standard serial dilution; assay type: cell-based; conditions: nutrient agar, 37° C., 17 hours, as free base
# [49] = system: Pseudomonas aeruginosa H11; test: Antibacterial MIC, standard serial dilution; assay type: cell-based; conditions: nutrient agar, 37° C., 17 hours, as free base
# [50] = system: Escherichia coli JR66/W677; test: Antibacterial MIC, standard serial dilution; assay type: cell-based; conditions: nutrient agar, 37° C., 17 hours, as free base
# [51] = system: Serratia sp. SOU; test: Antibacterial MIC, standard serial dilution; assay type: cell-based; conditions: nutrient agar, 37° C., 17 hours, as free base
# [52] = system: Bacillus anthracis; assay type: cell-based; conditions: nutrient agar, 37° C., 17 hours, as free base
# [53] = system: Pseudomonas aeruginosa 21-75; test: Antibacterial MIC, standard serial dilution; assay type: cell-based; conditions: nutrient agar, 37° C., 17 hours, as free base
# [54] = system: Salmonella typhi T-63; test: Antibacterial MIC, standard serial dilution; assay type: cell-based; conditions: nutrient agar, 37° C., 17 hours, as free base
compound,measurement,setting,value
"CN(C(=O)CN)C1C(O)CC(N)C(OC2OC(CN)CCC2N)C1O (stereo not shown) [di-N^6',O^3 -demethylistamycinA]",antibacterial activity against Pseudomonas aeruginosa,[1],significantly higher than the parent istamycin A
"CNCC1CCC(N)C(OC2C(N)CCC(N(C)C(=O)CN)C2O)O1 (stereo not shown) [DB, 3-demethoxyistamycin B]",MIC,[2],0.78 µg/mL
same,MIC,[3],25 µg/mL
same,MIC,[4],0.78 µg/mL
same,MIC,[5],0.39 µg/mL
same,MIC,[6],0.39 µg/mL
same,MIC,[7],0.39 µg/mL
same,MIC,[8],6.25 µg/mL
same,MIC,[9],1.56 µg/mL
same,MIC,[10],< 0.20 µg/mL
same,MIC,[11],12.5 µg/mL
same,MIC,[12],0.39 µg/mL
same,acute toxicity,"[13]; mice, intravenous, in words",low toxicity
same,tolerated dose (all treated mice),"[13]; mouse, in vivo, iv, 336 h",100 mg/kg
same,MIC,[14],0.78 µg/mL
same,MIC,[15],0.39 µg/mL
same,MIC,[16],1.56 µg/mL
same,MIC,[17],100 µg/mL
same,MIC,[18],< 0.20 µg/mL
same,MIC,[19],50 µg/mL
same,MIC,[20],12.5 µg/mL
same,MIC,[21],0.78 µg/mL
same,MIC,[22],0.78 µg/mL
same,MIC,[23],0.39 µg/mL
same,antibacterial activity,[24],the most active compound
same,MIC,[25],1.56 µg/mL
same,MIC,[26],0.39 µg/mL
same,MIC,[27],0.20 µg/mL
same,MIC,[28],0.78 µg/mL
same,MIC,[29],0.39 µg/mL
same,MIC,[30],< 0.20 µg/mL
same,MIC,[31],< 0.20 µg/mL
same,MIC,[32],< 0.20 µg/mL
same,MIC,[33],0.78 µg/mL
same,MIC,[34],12.5 µg/mL
same,MIC,[35],0.39 µg/mL
same,MIC,[36],12.5 µg/mL
same,MIC,[37],50 µg/mL
same,MIC,[38],< 0.20 µg/mL
same,MIC,[39],0.78 µg/mL
same,MIC,[40],1.56 µg/mL
same,MIC,[41],3.13 µg/mL
same,MIC,[42],0.78 µg/mL
same,MIC,[43],12.5 µg/mL
same,MIC,[44],6.25 µg/mL
same,MIC,[45],0.78 µg/mL
same,MIC,[46],1.56 µg/mL
same,MIC,[47],1.56 µg/mL
same,MIC,[48],0.39 µg/mL
same,MIC,[49],25.0 µg/mL
same,MIC,[50],0.78 µg/mL
same,MIC,[51],3.13 µg/mL
same,MIC,[52],0.39 µg/mL
same,MIC,[53],50 µg/mL
same,MIC,[54],< 0.20 µg/mL
